Data on seven molecules can be found in doi:10.1101/2021.12.13.472388v3 (biorxiv, 2022).

Bounds are passed on as bounds.

Experiment [1] has as its target BRD4-BDI (Homo sapiens, UniProt O60885). The experiment can be described thus: HTRF peptide displacement. Particulars: 6 h, room temperature. Type of experiment: binding.
The target of experiment [2] is CECR2 (Homo sapiens, UniProt Q9BXF3). The experiment can be described thus: BROMOscan competition binding. Particulars: single dose 1 μM; unreliable (may be per cent of control, direction unclear).
Experiment [3] addresses T1, TRIM33 (Homo sapiens, UniProt Q9UPN9).
T1 sequence (Q9UPN9 882-1087 limits assumed): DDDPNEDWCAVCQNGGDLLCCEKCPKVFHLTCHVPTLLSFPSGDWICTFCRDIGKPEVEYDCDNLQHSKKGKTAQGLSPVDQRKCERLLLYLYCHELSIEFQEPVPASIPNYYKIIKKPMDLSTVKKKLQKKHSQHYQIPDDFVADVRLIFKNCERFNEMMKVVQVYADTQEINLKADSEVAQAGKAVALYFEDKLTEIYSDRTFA
Kind of experiment: BROMOscan competition binding. To be noted: single dose 1 μM; unreliable (may be per cent of control, direction unclear).

In experiment [4] the test system is NB4. Kind of experiment: cells. Also noted: species or system MOLM-14, CCRF-CEM, K-562. Particulars: Homo sapiens, NB-4, 72 h, read-out: Cells viability EC50 NB4 (µM).
Experiment [5] relates to K-562. Kind of experiment: cells. Also noted: species or system MOLM-14, CCRF-CEM, NB4. To be noted: Homo sapiens, K562, 72 h, read-out: Cells viability EC50 K-562 (µM).

The IC50 is the point on the concentration scale where inhibition reaches its midpoint. A low value points to inhibition by little substance. On to `CC(=O)N1CCc2c(sc3nc(SCC(=O)Nc4cc(Cl)ccc4C)n(Cc4ccco4)c(=O)c23)C1` [compound 1], for which the IC50 in experiment [1] came out at 4 ± 0.5 µM. As for `Cc1ccc(-c2c(C)noc2C)cc1S(=O)(=O)Nc1cccc(C)c1C` [compound 2], in experiment [1], the IC50 stood at 11 ± 0.9 µM. For `CCc1cccc(C)c1NS(=O)(=O)c1cc(-c2c(C)noc2C)ccc1C` [compound 3], in experiment [1], the IC50 was found to be 9.3 ± 0.8 µM. As for `Cc1cc(F)ccc1NS(=O)(=O)c1cc(-c2c(C)noc2C)ccc1C` [compound 4], the IC50 in experiment [1] came out at 7.4 ± 0.5 µM.

Molecule `COc1cc(C(=O)C(=Cc2ccncc2)c2nc3ccccc3o2)cc(OC)c1OC` [compound 5] gave an IC50 in experiment [1] of 4.3 ± 0.2 µM. The same measure, in the same setting: with `O=C1c2ccc(Oc3cccc(Oc4ccc5c(c4)C(=O)N(c4ccc(O)cc4)C5=O)c3)cc2C(=O)N1c1ccc(O)cc1` [compound 7] the figure was 1.1 ± 0.1 µM. One may read the % inhibition as how much of the control response was suppressed. High values mean a strong effect, low ones a weak effect. A word on the EC50: it is the midpoint of the concentration-response curve. For `CC(=O)N1CCc2c(sc3nc(SCC(=O)Nc4cccnc4C)n(Cc4ccco4)c(=O)c23)C1` [compound 34, 2-((7-Acetyl-3-(furan-2-ylmethyl)-4-oxo-3,4,5,6,7,8-hexahydropyrido[4’,3’:4,5]thieno[2,3-d]pyrimidin-2-yl)thio)-N-(2-methylpyridin-3-yl)acetamide], the “% inhibition at 1 μM” value in experiment [2] is listed as 54%; in experiment [3], 52%. In experiment [1], this molecule returned an IC50 of 1.3 µM. Moreover, the EC50 in experiment [4] and in experiment [5] was above 25 µM each time.
